Reference: PMC2813692 (Molecular cancer therapeutics, 2008)
Blank lines part the entries; values can stand above or below the compound they belong to.

How the values were obtained:
[1] = Plasma pharmacokinetics by LC-MS/MS
[2] = test system: subjects of the Adenoma Prevention with Celecoxib Trial; conditions: ref [32], cited from earlier work
[3] = test system: metastatic colorectal cancer; conditions: second-line single-agent; ref [33]; cited from earlier work
[4] = capecitabine 1,000 mg/m^2 alone (run-in, Pre), mean ± SD in 8 patients
[5] = capecitabine 1,000 mg/m^2 in combination with 250 mg gefitinib, C1D1, mean ± SD in 8 patients

- effect of gefitinib on the AUC, Cmax, t1/2, and clearance of capecitabine ([1]; alone (run-in day) vs in combination with gefitinib (cycle 1 day 1)): no significant effects
- CL/F [1, 4]: 272 ± 120 L/h
- t1/2λ [1, 4]: 0.93 ± 0.92 h
- CL/F [1, 5]: 300 ± 204 L/h
- t1/2λ [1, 5]: 1.09 ± 0.80 h
- Vd/F ([1]; human, plasma, oral, 1000 mg/m^2): 363 ± 364 L
- AUC(0-inf) ([1]; human, plasma, oral, AUC0→∞, capecitabine 1,000 mg/m^2 in combination with 250 mg gefitinib, C1D1, mean ± SD in 8 patients): 13.2 ± 8.1 µM·h
SMILES: CCCCCOC(=O)Nc1nc(=O)n([C@@H]2O[C@H](C)[C@@H](O)[C@H]2O)cc1F [capecitabine]

SMILES: Cc1ccc(-c2cc(C(F)(F)F)nn2-c2ccc(S(N)(=O)=O)cc2)cc1 [celecoxib]
- subjects who experienced cardiovascular events ([2]; 35 of 1,356 subjects who received celecoxib): 2.6%
- increase in risk of major fatal and nonfatal cardiovascular events ([2]; compared with placebo): 2.5 fold
- steady-state plasma trough levels of celecoxib ([1]; across any of the doses tested (data not shown)): Neither capecitabine nor gefitinib affected

- effect of capecitabine on the trough levels of gefitinib ([1]; across dose levels): did not affect
SMILES: COc1cc2ncnc(Nc3ccc(F)c(Cl)c3)c2cc1OCCCN1CCOCC1 [gefitinib]

SMILES: O=C1[O][Pt]2([NH][C@@H]3CCCC[C@H]3[NH]2)[O]C1=O [oxaliplatin]
- response rate [3]: 10%
